# Test system: 885724-159-R-J1-PDC KRAS PDC multicell spheroid viability
# Assay: Anticancer human tumor 885724-159-R-J1-PDC patient-derived pancreatic adenocarcinoma cell line growth inhibition [KRAS2]
# Settings: for IC50: curve of first compound; for viability, T/C: stronger effect = lower value
# In short: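 KRAS-mutant tumor cells were grown as spheroids with HUVEC endothelial cells and human MSCs as stroma. Targeted agents were tested alone and with KRAS pathway inhibitors. Doses started at or near clinical Cmax, or 10 microM, descending half-log.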
# [1] = second compound 0.1 µM, first compound 0.01 µM
# [2] = second compound 0.1 µM, first compound 0.0316 µM
# [3] = second compound 0.1 µM, first compound 0.1 µM
# [4] = second compound 0.1 µM, first compound 0.316 µM
# [5] = second compound 0.1 µM, first compound 1 µM
# [6] = second compound 0.316 µM, first compound 0.01 µM
# [7] = second compound 0.316 µM, first compound 0.0316 µM
# [8] = second compound 0.316 µM, first compound 0.1 µM
# [9] = second compound 0.316 µM, first compound 0.316 µM
# [10] = second compound 0.316 µM, first compound 1 µM
# [11] = second compound 1 µM, first compound 0.01 µM
# [12] = second compound 1 µM, first compound 0.0316 µM
# [13] = second compound 1 µM, first compound 0.1 µM
# [14] = second compound 1 µM, first compound 0.316 µM
# [15] = second compound 1 µM, first compound 1 µM
# [16] = second compound 3.16 µM, first compound 0.01 µM
# [17] = second compound 3.16 µM, first compound 0.0316 µM
# [18] = second compound 3.16 µM, first compound 0.1 µM
# [19] = second compound 3.16 µM, first compound 0.316 µM
# [20] = second compound 3.16 µM, first compound 1 µM
# [21] = second compound 10 µM, first compound 0.01 µM
# [22] = second compound 10 µM, first compound 0.0316 µM
# [23] = second compound 10 µM, first compound 0.1 µM
# [24] = second compound 10 µM, first compound 0.316 µM
# [25] = second compound 10 µM, first compound 1 µM
# [26] = second compound 0.1 µM, first compound 3.16 µM
# [27] = second compound 0.316 µM, first compound 3.16 µM
# [28] = second compound 1 µM, first compound 3.16 µM
# [29] = second compound 3.16 µM, first compound 3.16 µM
# 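Also: spheroids exposed to agents for 7 days before readout.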
SMILES,IC50 (second compound 0.1 µM),IC50 (second compound 0.316 µM),IC50 (second compound 1 µM),IC50 (second compound 3.16 µM),"viability, T/C [1]","viability, T/C [2]","viability, T/C [3]","viability, T/C [4]","viability, T/C [5]","viability, T/C [6]","viability, T/C [7]","viability, T/C [8]","viability, T/C [9]","viability, T/C [10]","viability, T/C [11]","viability, T/C [12]","viability, T/C [13]","viability, T/C [14]","viability, T/C [15]","viability, T/C [16]",other results
CCN1CCN(Cc2ccc(Nc3ncc(F)c(-c4cc(F)c5nc(C)n(C(C)C)c5c4)n3)nc2)CC1 + CNCc1ccccc1-c1csc(C(C)Nc2nc(C)nc3cc(OC)c(OC)cc23)c1,> 1 µM,> 1 µM,> 1 µM,< 0.00316 µM,100%,92.2%,86.8%,87.2%,96.9%,94.8%,78.2%,83.4%,94%,90.9%,96.3%,76.6%,78.3%,74.8%,71.2%,1.81%,"IC50 (second compound 10 µM): < 0.00316 µM; viability, T/C (second compound 0.1 µM, first compound 0.00316 µM): 110%; viability, T/C (second compound 0.316 µM, first compound 0.00316 µM): 106%; viability, T/C (second compound 1 µM, first compound 0.00316 µM): 95%; viability, T/C (second compound 3.16 µM, first compound 0.00316 µM): 0.67%; viability, T/C [17]: 0.79%; viability, T/C [18]: 4.1%; viability, T/C [19]: 0.68%; viability, T/C [20]: 0.56%; viability, T/C (second compound 10 µM, first compound 0.00316 µM): 0.19%; viability, T/C [21]: 0.32%; viability, T/C [22]: 0.2%; viability, T/C [23]: 0.19%; viability, T/C [24]: 0.19%; viability, T/C [25]: 0.28%"
CC(=O)OC12COC1CC(O)C1(C)C(=O)C(O)C3=C(C)C(OC(=O)C(O)C(NC(=O)OC(C)(C)C)c4ccccc4)CC(O)(C(OC(=O)c4ccccc4)C21)C3(C)C (stereo not given) + CC1OCC2(CCN(c3cnc(Sc4ccnc(N)c4Cl)c(N)n3)CC2)C1N,> 3.16 µM,> 3.16 µM,> 3.16 µM,> 3.16 µM,103%,110%,108%,117%,122%,99.7%,100%,109%,114%,128%,112%,120%,126%,122%,135%,76.2%,"IC50 (second compound 10 µM): > 3.16 µM; viability, T/C [26]: 121%; viability, T/C [27]: 116%; viability, T/C [28]: 138%; viability, T/C [17]: 86.7%; viability, T/C [18]: 88.9%; viability, T/C [19]: 93.6%; viability, T/C [20]: 97.2%; viability, T/C [29]: 97.8%; viability, T/C [21]: 77.6%; viability, T/C [22]: 84.5%; viability, T/C [23]: 87.4%; viability, T/C [24]: 95.5%; viability, T/C [25]: 91.5%; viability, T/C (second compound 10 µM, first compound 3.16 µM): 103%"
CC(=O)OC12COC1CC(O)C1(C)C(=O)C(O)C3=C(C)C(OC(=O)C(O)C(NC(=O)OC(C)(C)C)c4ccccc4)CC(O)(C(OC(=O)c4ccccc4)C21)C3(C)C (stereo not given) + C=CC(=O)N1CCN(c2nc(OCC3CCCN3C)nc3c2CCN(c2cccc4cccc(C)c24)C3)CC1CC#N,> 3.16 µM,> 3.16 µM,> 3.16 µM,> 3.16 µM,87.5%,94.9%,97%,106%,116%,85.5%,97.5%,92.8%,101%,115%,82.6%,86.9%,91.8%,96.7%,99.2%,87.2%,"IC50 (second compound 0.0316 µM): > 3.16 µM; viability, T/C (second compound 0.0316 µM, first compound 0.01 µM): 86.9%; viability, T/C (second compound 0.0316 µM, first compound 0.0316 µM): 95.8%; viability, T/C (second compound 0.0316 µM, first compound 0.1 µM): 102%; viability, T/C (second compound 0.0316 µM, first compound 0.316 µM): 101%; viability, T/C (second compound 0.0316 µM, first compound 1 µM): 110%; viability, T/C (second compound 0.0316 µM, first compound 3.16 µM): 109%; viability, T/C [26]: 115%; viability, T/C [27]: 103%; viability, T/C [28]: 96.7%; viability, T/C [17]: 100%; viability, T/C [18]: 99.6%; viability, T/C [19]: 105%; viability, T/C [20]: 111%; viability, T/C [29]: 115%"

# — PubChem BioAssay AID1963861 (Molecular Pharmacology Branch, DTP, NCI, 2024)
